The source of these data is US5162571A, “Phenol derivatives, their production and use” (Takeda Chemical Industries, Ltd., priority 1987, dated 1992).

The target of series [1] is T1, specific [^3 H] U-46619 binding to guinea pig platelet membrane (Cavia porcellus, UniProt A0A286Y4I8).
T1 construct: Platelet membranes were prepared according to the following procedure; from tissue; host or cells: guinea pig platelet membranes
T1 sequence (A0A286Y4I8 1-347): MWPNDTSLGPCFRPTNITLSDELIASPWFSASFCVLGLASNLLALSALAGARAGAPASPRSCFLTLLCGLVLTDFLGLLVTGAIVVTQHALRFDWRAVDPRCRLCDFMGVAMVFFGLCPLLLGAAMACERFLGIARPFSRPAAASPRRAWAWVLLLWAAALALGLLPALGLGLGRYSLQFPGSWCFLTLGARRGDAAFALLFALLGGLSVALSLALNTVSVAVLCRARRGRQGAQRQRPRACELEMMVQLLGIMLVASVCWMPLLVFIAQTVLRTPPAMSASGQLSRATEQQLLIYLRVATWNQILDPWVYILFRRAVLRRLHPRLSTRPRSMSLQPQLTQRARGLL
Put plainly: Inhibition of specific [^3 H] U-46619 binding to guinea pig platelet membrane. The note with it: [^3 H] U-46619, 25° C., 30 min; read-out: IC50 (Concentration for 50% inhibition).

A short description of series [2]: Extension of bleeding time. The note with it: one hour before. In kind it is in vivo, rat. As for the experimental part:
Extension of bleeding time
Method: Test compounds were administered orally to rats one hour before the experiments. The rats were anesthetized and the tail was cut at 1.5 mm from the tip. Immediately, the tail was hung down into a physiological saline warmed at 37° C. The time required from initiation to stop of bleeding (bleeding time) was measured.

As to `Cc1c(C)c(Br)c(C)c(C(CCCCCC(=O)O)c2ccc(F)cc2)c1O` (stereo not drawn) [Compound 12, 7-(5-bromo-2-hydroxy-3,4,6-trimethylphenyl)-7-(4-fluorophenyl)heptanoic acid], in series [1], the IC50 came out at 200 nM. In addition, the Bleeding time was found to be 272 ± 52 s in series [2] (10 mg/kg oral, control 173 ± 23, * p < 0.05) and 258 ± 14 s in series [2] (30 mg/kg oral, control 164 ± 27, ** p < 0.01).
